Data reported in US20150273013A1, “AGONISTS OF GUANYLATE CYCLASE USEFUL FOR THE TREATMENT OF GASTROINTESTINAL DISORDERS, INFLAMMATION, CANCER AND OTHER DISORDERS” (Synergy Pharmaceuticals, Inc., priority 2014, published 2015).
Bridges are numbered along the chain shown (N, C = ends). Where no end group is shown, it is not given here. [ ]: non-standard residue; d: D form.

Columns and labels:
colitis in murine models = conditions: oral treatment, Shailubhai et al. 2009; cited from earlier work
[1] = tested on: non-inflammatory partial restraint stress induced hypersensitivity to colorectal distension (CRD); assay: Partial restraint stress induced hypersensitivity to colorectal distension, oral treatment; format: in vivo, rat; conditions: partial restraint stress model, oral doses of 0.01 and 0.05 mg/kg; for number of abdominal contractions in response to CRD: intracolonic distension pressures between 15 and 60 mm Hg
Method: (§1) Oral Treatment with Plecanatide and Sp-333, Agonists of Guanylate Cyclase-C, Attenuates Visceral Hypersensitivity in Rat Models
(§2) Oral treatment with plecanatide (Asn Asp Glu Cys Glu Leu Cys Val Asn Val Ala Cys Thr Gly Cys Leu) or SP-333 (dAsn Asp Glu Cys Glu Leu Cys Val Asn Val Ala Cys Thr Gly Cys dLeu), homologues of UG, was evaluated in rodent models of inflammatory (TNBS) and non-inflammatory partial restraint stress induced hypersensitivity to colorectal distension (CRD).

[2] = tested on: inflammatory (TNBS) induced hypersensitivity to colorectal distension (CRD); assay: TNBS (inflammatory) induced hypersensitivity to colorectal distension, oral treatment; format: in vivo, rat; conditions: for colonic wall elasticity / number of abdominal contractions in response to CRD: TNBS model, oral doses of 0.01 and 0.05 mg/kg; for number of abdominal contractions in response to CRD: intracolonic distension pressures between 15 and 60 mm Hg; for colonic volume adaptation to increasing pressure: after TNBS instillation, pressures between 15 and 60 mm Hg
Method: as §1, §2

Asn Asp Glu Cys Glu Leu Cys Val Asn Val Ala Cys Thr Gly Cys Leu (NDECELCVNVACTGCL; disulfide 4-12, 7-15) [plecanatide, GC-C agonist, homologue of uroguanylin, (C4:C12, C7:C15) bicycle peptide]
effect on colitis (colitis in murine models): ameliorate colitis | colonic wall elasticity [1]: without significantly altering | number of abdominal contractions in response to CRD [1]: effectively reduced | colonic wall elasticity [2]: without significantly altering | number of abdominal contractions in response to CRD [2]: effectively reduced | colonic volume adaptation to increasing pressure [2]: reduced

dAsn Asp Glu Cys Glu Leu Cys Val Asn Val Ala Cys Thr Gly Cys dLeu ([dN]DECELCVNVACTGC[dL]; disulfide 4-12, 7-15) [SP-333, GC-C agonist, homologue of uroguanylin, (C4:C12, C7:C15) bicycle peptide]
effect on colitis (colitis in murine models): ameliorate colitis | colonic wall elasticity [1]: without significantly altering | number of abdominal contractions in response to CRD [1]: effectively reduced | colonic wall elasticity [2]: without significantly altering | number of abdominal contractions in response to CRD [2]: effectively reduced | colonic volume adaptation to increasing pressure [2]: reduced
